One data set deals with NF-κB. The data set is described as follows: NF-κB heterologous promoter (pκB.Luc) luciferase reporter in bovine endothelial cells. It is filed as cell-based. On the procedure: FIG. 2 is a set of bar graphs of cell-surface enzyme immunoassays. […] The difference between treatment with TNF-α alone and in the presence of [11,12]-EET were statistically significant (*p<0.05, **p<0.01), OD, optical density. […] After stimulation with TNF-α (10 ng/ml) in the presence or absence of EET, promoter activity was determined relative to basal activity. *p<0.01 vs. TNF-α alone.
(§1) To localize cis-acting elements in the VCAM-1 promoter that might mediate the inhibitory effects of [11,12]-EET, we transiently transfected bovine aortic endothelial cells with a −755 bp VCAM-1 promoter construct (DeCaterina et al., 96 J. Clin. Invest. 60 (1995)). Stimulation with TNF-α induced a 13-fold increase in relative VCAM-1 promoter activity that was abolished by cotreatment with [11,12]-EET. […] To confirm that the tandem κB sites in the VCAM-1 promoter are repressed by [11,12]-EET we subcloned them into a heterologous promoter construct containing the SV40 enhancer linked to the luciferase reporter gene (pκB.Luc). Stimulation of transfected endothelial cells with TNF-α induced a 6-fold increase in pκB.Luc promoter activity that was abolished by co-treatment with [11,12]-EET, but not [14,15]-EET (FIG. 2C). […] Compared to transfection with the empty pcDNA3.1 vector, overexpression of CYP2J2 decreased TNF-induced VCAM-1 and pκB.Luc promoter activity by 70-80% which were reversed in the presence of SKF525A (FIG. 2C). Neither transfection with CYP2J2 cDNA alone nor treatment with SKF525A alone affected basal promoter activity.

The subject of a further data set is VCAM-1 promoter. The data set is described as follows: VCAM-1 promoter construct activity in transiently transfected bovine aortic endothelial cells. It is filed as cell-based.
Text: as §1, with “-755” for “−755”, “SK[…]” for “SKF525A”

The test system of data set [1] is bovine aortic endothelial cells (BAECs). The data set is described as follows: Hypoxia-reoxygenation-induced cell injury in BAECs (cell number, LDH release, trypan blue). The data set is classed as cell-based. How it is done: Effects of P450-derived arachidonic acid metabolites on hypoxia-reoxygenalion-induced injury in BAECs. BAECs, either untransfected, or 48 hours after transfection with pcDNA3.1/GFP or pcDNA3.1/CYP2J2, or 10 min after treatment with eicosanoids, epoxide hydrolase inhibitors or vehicle, were exposed to hypoxia (95% nitrogen plus 5% carbon dioxide) for 24 hours, followed by reoxygenation (95% air plus 5% carbon dioxide) for 4 hours using an environmental chamber within a 37° C. incubator. Cells maintained under continuous (28 hours) normoxic conditions served as controls.
EETs were prepared by total chemical synthesis as previously described (Corey el al., 102 J. Am. Chem. Soc. 1433-1435 (1980), Falck et al., 23 Tetrahedron Lett. 1755-1756 (1982)). DHETs were prepared by chemical hydration of EETs as described by Capdevila et al., 187 Methods Enzymol. 386-394 (1990). Synthetic EETs and DHETs were purified by reverse-phase HPLC prior to use. BAECs, grown to ˜85% confluency, were treated with either synthetic [11,12]-EET, [11,12]-DHET, or [14,15]-EET in ethanol vehicle (1 μmol/L each, final concentration) for 10 min prior to exposure to hypoxia-reoxygenation. […] Cells treated with vehicle alone served as controls.
After hypoxia-reoxygenation, the cell number was determined using a hemocytometer and the degree of cell injury was assessed by measuring lactate dehydrogenase release into the culture medium using the CytoTox 96 Non-Radioactive Cytotoxicity Assay Kit (Promega, Madison, Wis.) and by counting the number of trypan blue dye stained cells. Data are expressed as a percentage of values obtained from control cells maintained under normoxic conditions.

In another data set the test system is endogenous EET levels. Briefly: Endogenous EET levels in BAECs (gas chromatography/mass spectrometry). Particulars: CYP2J2 transfection vs control BAECs. It is filed as cell-based, bovine. The text has this: In addition to the cyclooxygenase and lipoxygenase pathways, the P450 monooxygenase pathway is an important member of the cardiac arachidonic acid metabolic cascade (Wu et al., 272 J. Biol. Chem 12551 (1997)).

The subject of a further data set is F2-isoprostanes. Briefly: Cellular F2-isoprostanes in BAECs exposed to hypoxia-reoxygenation (GC/MS). It is filed as cell-based, bovine. The note with it: CYP2J2-transfected vs GFP-transfected BAECs. On the procedure: F2-Isoprostane levels in BAECs were measured using a modification of the procedure described by Morrow & Roberts, 300 Methods Enzymol. 3-12 (1999). Briefly, cells were collected by treatment with trypsin and stored at −80° C. until analyzed. BHT was added to the freshly-thawed samples to inhibit oxidation during sample processing. The samples (4×10^7 cells) were incubated with KOH for 30 minutes at 40° C. The samples were then acidified to pH 3.0, 3 ng of a d4 8-iso-PGF2α internal standard was added, and the precipitated protein was removed by centrifugation at 375×g. The F2-isoprostanes in the supernatant were concentrated by passage over C18 Sep-pak (Millipore, Marlborough, Mass.), followed by Silica Sep-pak (Millipore) columns. The eluant, containing a mixture of the d4 internal standard and endogenous cellular F2-isoprostanes, was dried under nitrogen and derivatized to the pentaflorobenzyl (PFB) ester using […] according to the protocol of Schweer et al., 32 J. Mass Spectrom. 1362-1370 (1997). The PFB-derivatized isoprostanes were purified by TLC, and the bands were collected based on comparison of their Rf values to those of authentic standards. […] Quantitation was done by GC/NCI/MS on a 25m Supelco DB 5 column (Supelco, Bellefonte, Pa.). […]

The mark [2] stands for this setting: overexpression vs empty pcDNA3.1 vector.
Setting [3] is: CYP2J2-transfected vs GFP-transfected BAECs.

As for `CCCCC/C=C\C[C@H]1O[C@H]1C/C=C\C/C=C\CCCC(=O)O` [[11,12]-EET], the “effect on TNF-α-induced pκB.Luc promoter activity” value in the data set on NF-κB (100 nM, TNF-α 10 ng/ml (6-fold increase)) is “abolished”. Further, the “effect on TNF-α-induced VCAM-1 promoter activity, −755 bp construct” value in the data set with VCAM-1 promoter (cotreatment with TNF-α (13-fold increase)) is “abolished”. Besides, in data set [1] (1 μmol/L, added 10 min prior to hypoxia (24 h hypoxia, 4 h reoxygenation)), the “hypoxia-reoxygenation-induced cell injury, number of trypan blue stained cells” value is on record as “significantly attenuates”.

Turning to “CYP2J2: CYP2J2 cDNA (1.9 kb) subcloned into plasmid pcDNA3.1, transfected into endothelial cells”, the “decrease of TNF-induced pκB.Luc promoter activity” value in the data set on NF-κB (setting [2]) was 70-80%. In addition, in the data set on endogenous EET levels, the “increase of endogenous EET levels” value is on record as “approximately 30%”. In addition, in the data set on F2-isoprostanes, the “hypoxia-reoxygenation-induced increase in cellular F2-isoprostanes” value is listed as “significantly attenuated”. The “decrease of TNF-induced VCAM-1 promoter activity” value in the data set with VCAM-1 promoter (setting [2]) is reported as 70-80%. In data set [1] (setting [3]), the “cell number after hypoxia-reoxygenation” value is given as “slightly increased”, the “lactate dehydrogenase released into culture medium after hypoxia-reoxygenation” value was “significantly less” and the “trypan blue stained cells after hypoxia-reoxygenation” value was “significantly fewer”.

(Values after patent US6916843B1, “Anti-inflammatory actions of cytochrome P450 expoxygenase-derived eicosanoids” (The United States of America as represented by the …, priority 1999, dated 2005).)
